A word on the IC50: it is the point on the concentration scale where inhibition reaches its midpoint.

In data set [1] the test system is human cervical carcinoma HeLa cells. The data set can be described thus: Cytotoxicity by spectrophotometric MTT method on HeLa cells. As to conditions: for IC50: MTT. Type of data set: cell-based. Here is the method: (§1) The human cervical carcinoma HeLa cells were used as a model for testing the cytotoxicity of new compounds. Said cells grow as single-layer culture in nutrient Dulbecco's modified Eagle's medium (DMEM, Gibco Life Technologies, Grand Island, USA) with 10% of fetal bovine serum (Gibco) and antibiotics (penicillin 100 U, streptomicine 0.1 mg, Sigma Chem. Co., St. Louis, USA). They were grown in thermostat at 37° C. with 5% CO2 in a humidified atmosphere in plastic cell culture flasks (BD Falcon, Germany).
The compounds were dissolved in dimethyl sulfoxide (Merck, Darmstadt, Germany) in concentrations of 20-120 mM (depending on the compound) and stored in aliquots at −20° C. as stock solutions. The stock solutions were diluted to the appropriate concentrations just before the experiments.
(§2) The cytotoxicity of new compounds was determined by spectrophotometric MTT method (Michisch et al., Urol Res 18(990)131). It is a colorimetric method based on the ability of living cells to reduce the yellow tetrazolium salt 3-(4,5-dimethylthiazol-2-yl)-2,5-diphenyltetrazolium bromide) (MTT; Merck) to violet formazane crystals using mitochondrial dehydrogenase and cytochrome b and c. The crystals were dissolved in dimethyl sulfoxide (DMSO), followed by spectrophotometric measurement of their absorbance at 545 nm.
Cells were seeded in 96-well microtitration plates (BD Falcon) (2.5×10^3/180 μl), and incubated overnight at temperature of 37° C. to allow the cells to attach to the growth medium. Next day the compounds were added to the growth medium in a wide range of concentrations, from 0.05 to 100 μM (each concentration in quadruplicate). After 72 hours, the samples were coloured with the MTT dye and left for 3 hours in the thermostat. Formed crystals were dissolved in dimethyl sulfoxide and the absorbance of each sample was measured at 545 nm. The survival of cells was calculated according to the formula: […]
The experiments were repeated 2-3 times. […] IC50 values were read from the curve. IC50 is the concentration of a compound that reduces the survival of treated cells to 50%.
The cytotoxicity of the new compounds was determined on human cervical carcinoma HeLa cells by the spectrophotometric MTT method. It is expressed as IC50 value, i.e. as the concentration of a compound that reduces cell survival to 50%.

In data set [2] the test system is human ovarian adenocarcinoma OVCAR cells. The data set can be described thus: Cytotoxicity by MTT method on OVCAR cells. Format: cell-based. As to conditions: Table 2.
The test system of data set [3] is rhabdomiosarcoma RD cells. Description: Cytotoxicity by MTT method on RD cells. Type of data set: cell-based. As to conditions: Table 2.
Data set [4] has as its system CA3 cells resistant to cisplatin and cross-resistant to vincristine, methotrexate and mitomycin C. Description: Cytotoxicity by MTT method on CA3 resistant sub-line. Format: cell-based. As to conditions: Table 3. (In general: Tetrazolium assays rely on reduction of a dye to a coloured formazan, in cell work by metabolically active cells.)
The test system of data set [5] is human embryonic kidney HEK 293 cells. Description: Cytotoxicity by MTT method on HEK 293 cells. As to conditions: HEK 293, MTT; Table 2. Format: cell-based.
For data set [6], the system named is laryngeal carcinoma HEp-2 cells. Description: Cytotoxicity by MTT method on HEp-2 cells. Format: cell-based.
A further data set has as its system glioblastoma A1235 cells. Description: Cytotoxicity by MTT method on A1235 cells. Type of data set: cell-based. As to conditions: Table 2.
Data set [7] has as its system HeLa CK cells resistant to cisplatin and cross-resistant to vincristine and methotrexate. Description: Cytotoxicity by MTT method on HeLa CK resistant sub-line. Type of data set: cell-based, human. As to conditions: Table 3. The procedure:
as §2
Cells were seeded in 96-well microtitration plates (BD Falcon) (2.5×10^3/180 μl), and incubated overnight at temperature of 37° C. to allow the cells to attach to the growth medium. Next day the compounds were added to the growth medium in a wide range of concentrations, from 0.05 to 100 μM (each concentration in quadruplicate). […] Formed crystals were dissolved in dimethyl sulfoxide and the absorbance of each sample was measured at 545 nm. The survival of cells was calculated according to the formula: […]
(§3) The experiments were repeated 2-3 times. […] IC50 values were read from the curve. […]
It was tested on parental cervical carcinoma HeLa cells and their sub-line HeLa CK cells resistant to cisplatin and cross-resistant to vincristine and methotrexate (Osmak and Eljuga, Res Exp Med 193(1993) 389). […] Cytotoxicity was determined by spectrophotometric MTT method and expressed as IC50.

Data set [8] has as its system normal human cells, keratinocytes. Description: Cytotoxicity on keratinocytes, survival by crystal violet dye. Format: cell-based. As to conditions: Table 2. The procedure: as §1
The compounds were dissolved in dimethyl sulfoxide (Merck, Darmstadt, Germany) in concentrations of 20-120 mM (depending on the compound) and stored in aliquots at −20° C. as stock solutions. […]
Cells were seeded in 96-well microtitration plates (BD Falcon) (2.5×10^3/180 μl), and incubated overnight at temperature of 37° C. to allow the cells to attach to the growth medium. […] Formed crystals were dissolved in dimethyl sulfoxide and the absorbance of each sample was measured at 545 nm. The survival of cells was calculated according to the formula: […]
as §3
The cytotoxicity was determined by spectrophotometric MTT method (except for keratinocytes, which have low metabolic activity, so their survival was determined by addition of crystal violet dye) and expressed as IC50.

In a further data set the test system is mammalian cells. As to conditions: from publication, read-out: cytotoxicity IC50; cited from earlier work.
Setting [9] is: HeLa cells, 72 hours, Table 1, read-out: Cytotoxicity (IC50 μM).

Like-named read-outs stand apart in the source and are kept apart here.

Regarding `O=[N+]([O-])c1ccc(N=NNc2ccc([N+](=O)[O-])cc2)cc1` [1,3-bis(4-nitrophenyl)triazene], the biological activity result in data set [1] (tested during the testing of the compounds of the invention) is listed as “did not show any biological activity”.

As to `O=[N+]([O-])c1ccc(N=NNc2ccc([N+](=O)[O-])cc2Br)c(Br)c1` [VM-94c], the IC50 in data set [2] was 3.4 µM; in data set [3], 5.1 µM; in [4] it was 7.2 µM; in [5], 7.9 µM; in data set [6] (HEp2 parental cells, MTT, Table 3) it was 5.5 µM; in [6] (HEp-2, MTT, Table 2), 5.5 µM. Further, the IC50 with glioblastoma A1235 cells is 5.45 µM; in [7], 3.9 µM; in data set [1] (HeLa cells, 72 hours, Table 1, listed as VM 94c, read-out: Cytotoxicity (IC50 μM)), 3.65 µM; in data set [1] (HeLa parental cells, Table 3, read-out: IC50) it was 3.4 µM; in data set [1] (HeLa, Table 2, read-out: IC50) it was 3.65 µM; in data set [8] it was 9.45 µM.

For the molecule `O=[N+]([O-])c1ccc(N=NNc2ccc([N+](=O)[O-])cc2Br)c(Br)c1` [VM-97], the IC50 in data set [1] (setting [9]) came to 0.45 µM.

Consider `O=[N+]([O-])c1ccc(N=NNc2ccc([N+](=O)[O-])cc2Cl)c(Cl)c1` [VM-102], for which, in data set [1] (setting [9]), the IC50 was found to be 2.6 µM.

Consider `N=C(N)c1ccc(N=NNc2ccc(C(=N)N)cc2)cc1` [berenil, Berenil], for which, in the data set with mammalian cells, the IC50 is over 100 µM.

(Values after patent US8217022B2, “Analogues of 1,3-bis(4-nitrophenyl)triazenes, their pharmaceutically acceptable salts and N-acyl derivatives for tumour treatment” (Rudjer Boskovic Institute, priority 2009, dated 2012).)
